Experimental data from patent publication US12076334B2, “Pharmaceutical composition comprising adenosine derivative for prevention and treatment of retinal disease or optic nerve disease” (FUTURE MEDICINE CO., LTD., priority 2017, dated 2024).
Like-named read-outs stand apart in the source and are kept apart here.

Assays:
[1] = test system: photoreceptor cells derived from the mouse retina; assay: Mitochondrial membrane potential analysis (JC-1, flow cytometer); assay type: cell-based; details: for R2 (cell distribution, JC-1 flow cytometry): normal control 13.78 ± 1.12; for R1 (cell distribution, JC-1 flow cytometry): normal control 86.22 ± 1.12
Description: The prepared solution was stored at −20° C. until use. In addition, 10 mg of CCCP was dissolved in 1 mL of DMSO to prepare a 50 mM CCCP solution. The prepared solution was stored at −20° C. until use. Treatment of the test material was performed after diluting with a serum-free cell culture medium in 1:1000 (v/v). The control group was treated after diluting with DMSO in 1:1000 v/v).
Intracellular mitochondrial cell membrane potential was analyzed using JC-1 reagent. […] Thereafter, […] of JC-1 was treated and incubated for 30 minutes.

[2] = test system: photoreceptor cells derived from the mouse retina; assay: Cell protective effect against glutamic acid-induced cell death (cell viability); assay type: cell-based; details: n=6, read-out: EC50 (50% effective concentration), protection from glutamic acid-induced apoptosis
Description: (§1) Compound A to be used as a test material was prepared by dissolving in DMSO. The prepared solution was stored at −20° C. until use. In addition, 10 mg of CCCP was dissolved in 1 mL of DMSO to prepare a 50 mM CCCP solution. The prepared solution was stored at −20° C. until use. Treatment of the test material was performed after diluting with a serum-free cell culture medium in 1:1000 (v/v). The control group was treated after diluting with DMSO in 1:1000 v/v).
This experimental result means that Compound A has a protective effect against glutamic acid-induced apoptosis.

[3] = test system: photoreceptor cells derived from mouse retina; assay: Immunoblot of angiogenesis- and inflammation-related proteins in HMGB-1-treated photoreceptor cells; assay type: cell-based; details: 24 h
Description: (§2) Compound A to be used as a test material was prepared by dissolving in DMSO. The prepared solution was stored at −20° C. until use. Treatment of the test material was treated after diluting to 1:1000 (v/v) in a serum-free cell culture medium. The control group was treated after diluting to 1:1000 (v/v) in DMSO.
In order to confirm the efficacy of the test material in reactions related to angiogenesis and inflammatory response of photoreceptor cells derived from mouse retina, cells cultured for 24 hours under various conditions were recovered and intracellular proteins were extracted using a PRO-PREP protein extraction kit. Quantification of the extracted protein was measured using a BCA protein assay kit. 40 μg of protein was separated by 10% SDS-PAGE and then attached to the PVDF membrane. The protein-attached membrane was reacted with TBST (Tris-buffered saline with 0.1% Tween-20) containing 5% skim milk for 30 minutes and the primary antibody and secondary antibody were reacted in sequence. The protein expression level was confirmed by photographing using a Fusion Fximage acquisition system. The protein expression level was analyzed by relative values using ImageJ.
In relation to high mobility group box 1 (HMGB-1), it has been reported that the expression of HMGB-1 was increased when pressure was applied to photoreceptor cells derived from the mouse retina, and when HMGB-1 was treated to photoreceptor cells, angiogenesis-related factors and inflammatory responses increase (Bohm M R et al., Lab Invest, 96, 409-427, 2016). Accordingly, in the present disclosure, the efficacy of adenosine derivatives against angiogenic response and inflammatory response according to damage to photoreceptor cells was verified based on the above reference.

[4] = test system: photoreceptor cells derived from mouse retina; assay: ELISA of intracellular inflammatory cytokines (TNFα, IL-1β, IL-6) in HMGB-1-treated photoreceptor cells; assay type: cell-based; details: increased by HMGB-1, 24 h
Description: as §2
In order to confirm the efficacy of the test material in reactions related to angiogenesis and inflammatory response of photoreceptor cells derived from mouse retina, cells cultured for 24 hours under various conditions were recovered and intracellular proteins were extracted using a PRO-PREP protein extraction kit. Quantification of the extracted protein was measured using a BCA protein assay kit. Quantitative analysis of inflammatory cytokines (TNFα, IL-1β, IL-6) present in the cells was analyzed with each ELISA kit.

caspase 8 = assay: Caspase 8 activity assay (Caspase-Glo 8); assay type: cell-based, mouse; details: pretreatment 1 hour, then 5 mM glutamic acid 24 hours
Description: (§3) The activity of intracellular caspase 8 was analyzed by Caspase-Glo 8 assay system. […] After adding the kit solution in the same amount as the cell culture medium and reacting for 1 hour, the relative activity was analyzed by measuring the amount of generated luminescence through a microplate reader.

[5] = test system: mouse retina-derived photoreceptor cell; assay: Immunoblot of apoptosis-related proteins in glutamic acid-treated photoreceptor cells; assay type: cell-based
Description: as §1
In order to confirm the efficacy of a test material for angiogenesis-related response and inflammatory response of a mouse retina-derived photoreceptor cell, cells cultured for 24 hours under various conditions were collected and intracellular protein was extracted by using a PRO-PREP protein extraction kit. Quantification of the extracted protein was measured using a BCA protein assay kit. 40 μg of protein was separated by 10% SDS-PAGE and then attached to a PVDF membrane. The protein-attached membrane was reacted with Tris-buffered saline with 0.1% Tween-20 (TBST) containing 5% skim milk for 30 minutes, followed by reactions of primary and secondary antibodies in sequence. The protein expression level was confirmed using photograph by a Fusion Fximage acquisition system. The protein expression level was analyzed by expressing as a relative value using ImageJ.

[6] = test system: photoreceptor cells derived from mouse retina; assay: RT-PCR mRNA expression of angiogenesis- and inflammation-related factors in HMGB-1-treated photoreceptor cells; assay type: cell-based; details: increased by HMGB-1, 6 h
Description: as §2
In order to confirm the efficacy of the test material in reactions related to angiogenesis and inflammatory response of photoreceptor cells derived from mouse retina, cells cultured for 6 hours under various conditions were treated with TRIzol solution to isolate total RNA in cells. After the cDNA was synthesized using specific primers for the target gene (Table 2) and reverse transcriptase in the isolated total RNA, expression of the related factors was confirmed. mRNA expression levels were analyzed by expressing as relative values using ImageJ software.

caspase 3/7 = assay: Caspase 3/7 activity assay (Caspase-Glo 3/7); assay type: cell-based, mouse; details: pretreatment 1 hour, then 5 mM glutamic acid 24 hours
Description: as §3, with “3/7” for “8”

[7] = test system: photoreceptor cells derived from the mouse retina; assay: TUNEL assay and DAPI staining of glutamic acid-induced apoptosis; assay type: cell-based; details: pretreated 1 μM 1 hour, then 5 mM glutamic acid 8 hours; vs glutamic acid only
Description: as §1
Quantitative analysis of apoptosis cells was analyzed by DeadEnd™ Fluorometric TUNEL System. […] Cells were washed twice with PBS and fixed with 10% formalin for 15 minutes. Fixed cells were exposed to 0.1% Triton X-100 for 10 minutes. After the cells were reacted with dUTP containing fluorescence, the cut DNA portion was stained and then fixed on a slide with a mounting solution containing DAPI. The stained cells were observed through a fluorescence microscope.

[8] = test system: photoreceptor cells derived from mouse retina; assay: ELISA of VEGF in medium of HMGB-1-treated photoreceptor cells; assay type: cell-based; details: increased by HMGB-1; Compound A 0.1 μM or more; 24 h
Description: as §2
In order to confirm the efficacy of the test material in reactions related to angiogenesis of photoreceptor cells derived from mouse retina, the medium of cells cultured for 24 hours under various conditions was collected after centrifugation. Quantitative analysis of VEGF present in the medium was analyzed with the Mouse VEGF Quantikine ELISA Kit.

[9] = Cytotoxicity of glutamic acid (cell viability, cell proliferation assay kit); assay type: cell-based; details: mouse; 0-9 mM, 24 hours incubation
[10] = cells treated with the agent only (glutamic acid 5 mM 6 hours, or CCCP)
[11] = HMGB-1 (5 μg/mL), Compound A 2 μM
[12] = HMGB-1 (5 μg/mL), Compound A at least 0.1 μM
[13] = HMGB-1 (5 μg/mL), Compound A at least 0.5 μM
[14] = increased by HMGB-1 (5 μg/mL), Compound A at least 0.5 μM
[15] = pretreated with 1 μM Compound A 1 hour, then 5 mM glutamic acid 6 hours
[16] = changed by glutamic acid, pretreated with Compound A
[17] = increased by glutamic acid, pretreated with Compound A
[18] = pretreatment of Compound A, glutamic acid-treated cells

## N#CC(C#N)=NNc1cccc(Cl)c1 [CCCP]
[1]; [10]
  R2 (cell distribution, JC-1 flow cytometry): 90.58 ± 1.48
  R1 (cell distribution, JC-1 flow cytometry): 9.42 ± 1.48

## O[C@@H]1[C@H](O)CS[C@H]1n1cnc2c(NCc3cccc(Cl)c3)nc(Cl)nc21 [Compound A, (2R,3R,4S)-2-(2-chloro-6-(3-chlorobenzylamino)-9H-purin-9-yl)tetrahydrothiophene-3,4-diol]
[2]; pretreatment for 30 min
  EC50: 0.31 ± 0.08 µM
[2]; pretreatment for 1 hour
  EC50: 0.35 ± 0.06 µM
[3]; [11]
  ANG1 protein expression: significantly increased
  ICAM1 protein expression: significantly decreased
  VCAM1 protein expression: significantly decreased
[3]; [12]
  ANG2 protein expression: significantly decreased
  MMP9 protein expression: significantly decreased
  VEGFR1 protein expression: significantly decreased
[3]; [13]
  COX2 protein expression: significantly reduced
  MMP2 protein expression: significantly reduced
[3]; [14]
  VEGF protein expression: significantly reduced
  VEGFR2 protein expression: significantly reduced
[4]; Compound A 0.1 μM or higher
  amount of TNFα in cells (ELISA): significantly reduced
[4]; Compound A 1 μM or higher
  amount of IL-1β in cells (ELISA): significantly reduced
  amount of IL-6 in cells (ELISA): significantly reduced
[1]; [15]
  R2 (cell distribution, JC-1 flow cytometry): 28.30 ± 1.60
  R1 (cell distribution, JC-1 flow cytometry): 71.70 ± 1.60
Caspase 8
  activity of caspase 8: inhibited in a concentration-dependent manner
[5]; [16]
  BID protein expression: recovered to the same expression level as the normal group
  Bad protein expression: recovered to the same expression level as the normal group
  Bcl2 protein expression: recovered to the same expression level as the normal group
  pBad protein expression: recovered to the same expression level as the normal group
  pBcl2 protein expression: recovered to the same expression level as the normal group
[5]; decreased by glutamic acid, pretreated with Compound A
  RIP protein expression: increased again in a concentration-dependent manner
[5]; [17]
  caspase 8 protein expression: significantly decreased
  cleaved caspase 3 protein expression: significantly decreased
  cleaved caspase 9 protein expression: significantly decreased
[5]; [18]
  expression of AIF in the nucleus: decreased significantly
  expression of cytochrome c in the cytoplasm: decreased significantly
[6]; Compound A 0.1 μM or more
  COX2 mRNA expression: significantly inhibited
  IL-6 mRNA expression: significantly inhibited
  VEGF mRNA expression: significant decrease
  VEGFR1 mRNA expression: significant decrease
[6]; Compound A 0.5 μM or more
  MMP9 mRNA expression: significantly reduced
  TNFα mRNA expression: significantly reduced
  VEGFR2 mRNA expression: significantly decreased
[6]; Compound A 1 μM or more
  ICAM1 mRNA expression: significantly reduced
  MMP2 mRNA expression: significantly reduced
  VCAM1 mRNA expression: significantly reduced
Caspase 3/7
  activity of caspase 3/7: inhibited in a concentration-dependent manner
[7]
  number of TUNEL-positive nuclei: significantly reduced
[8]
  amount of VEGF (ELISA, medium): significantly decreased

## N[C@@H](CCC(=O)O)C(=O)O [glutamic acid]
[9]
  IC50 at 24 h: 5100 ± 500 µM
[1]; [10]
  R2 (cell distribution, JC-1 flow cytometry): 63.87 ± 10.42
  R1 (cell distribution, JC-1 flow cytometry): 36.13 ± 10.42
